Results reported in patent US12109176B1, “Effect of glycerol on biofilm forming bacteria and fungi that changes the microbes sensitivity to pro and anti-biofilm non-toxic, non-bonded plasma amino acids and amino acid derivatives” (priority 2023, dated 2024).

Legend:
[1] = tested on: bacterial (S. aureus) biofilm; assay: Bacterial biofilm inhibition assay; type: cell-based, Staphylococcus aureus
[2] = tested on: bacterial (S. aureus) biofilm and fungal biofilm (C. albicans); assay: Biofilm disruption assay, bacterial and fungal taken together; type: cell-based
Description: (§1) Two types of biofilm assays were performed: an inhibition assay and a disruption assay. The inhibition assay assesses the compound's ability to prevent biofilm development, while the disruption assay assesses the compound's ability to break up an existing mature biofilm.
(§2) All bacterial biofilm solutions were prepared in Tryptic Soy Broth (TSB), supplemented with 1% glucose (henceforth referred to as TSB-G). All subsequent procedures were performed in a manner that maintained sterility. A solution of each amino acid or an amino acid derivative to be tested was prepared in weight to volume concentrations ranging from 0.1-5.0%. Amino acids and amino acid derivatives were also tested in combinations. Compound solutions were homogenized with gentle agitation in the dark (4° C., 24 hours) before use.
(§3) 32 Amino acids and 2 amino acid derivatives of the amino acid serine that occur freely in human blood were tested. […] 31 of the 32 amino acids that were tested were the L-Isomers. Glycine has no stereoisomers. The 2 amino acid derivatives, ethanolamine and phosphoethanolamine were also tested. All biofilm assays were performed using 384-well non-tissue culture-treated polystyrene plates. The fungal species tested are as follows: Candida albicans, Candida guilliermondii, Candida parapsilosis, Candida glabrata, Candida tropicalis and Candida dubliniensis. The bacterial species tested are as follows: Staphylococci (standard wild type and methicillin-resistant strain USA300), Escherichia coli, Pseudomonas aeruginosa and Staphylococcus epidermidis.
(§4) Fungal strains were streaked on Yeast Peptone Dextrose (YPD) agar plates and incubated at 30° C. for 48 hours. A single colony from each strain to be tested was inoculated into YPD broth and grown for 12 hours at 30° C., shaking at 225 rpm. […] The cells were allowed to adhere to the plate for 90 minutes at 37° C. with shaking (350 rpm). […] The plate was further incubated for 24 hours at 37° C. with shaking (350 rpm). Media was carefully aspirated and the biofilm was measured by optical density at 600 nm. […] The cells were allowed to adhere to the plate for 90 minutes at 37° C. with shaking (350 rpm). […] The plate was further incubated for 24 hours at 37° C. with shaking (350 rpm). […] The plate was further incubated for 24 hours at 37° C. with shaking (350 rpm). Media was carefully aspirated, and the biofilm was measured by optical density at 600 nm.
(§5) Bacterial strains were streaked on Blood Agar plates (5% sheep blood in Tryptic Soy Broth) and incubated at 37° C. for 24 hours. A single colony from each strain to be tested was inoculated in a TSB broth and grown for 12 hours, at 37° C. with shaking (225 rpm). For the bacterial biofilm inhibition assays, 1 μL of saturated overnight cell culture was added to either 80 μL of TSB-G, or TSB-G supplemented with the amino acid compound solution to be tested, in a 384-well plate. The cells were allowed to adhere to the plate for 60 minutes at 37° C. without shaking. The media was carefully aspirated and 80 μL of TSB-G, or TSB-G supplemented with the amino acid compound solution was added to the plate. The plate was further incubated for 24 hours at 37° C. without shaking. Media was carefully aspirated and the biofilm was measured by optical density at 600 nm. Eight or twelve replicates were performed for each tested condition and the reported values are normalized to the control (TSB-G media only). For the bacterial biofilm disruption assays, 80 µL of TSB-G was added to the plate, along with 1 μL of overnight cell culture. The cells were allowed to adhere to the plate for 60 minutes at 37° C. with no shaking. The media was carefully aspirated and 80 μL of TSB-G was added to the plate. The plate was further incubated for 24 hours at 37° C. with no shaking. Media was carefully aspirated from the mature biofilm and 80 μL of TSB-G, or TSB-G supplemented with the amino acid to be tested, was gently added to the plate.

[3] = tested on: bacterial and fungal biofilm; assay: In vitro testing on bacterial and fungal biofilm (assay not told apart); type: cell-based; details: for ideal concentration for antibiofilm effect: in the absence of glycerol on in vitro testing; for effect on bacterial and fungal biofilm (in words): in vitro testing; for concentration of maximum (ideal) antibiofilm effect: tested on its own, without glycerol
Description: as §1, §2, §3, §4, §5

[4] = tested on: bacterial (S. aureus) biofilm and fungal biofilm (C. albicans); assay: Biofilm inhibition assay, bacterial and fungal taken together; type: cell-based
[5] = tested on: fungal biofilm; assay: In vitro testing on fungal biofilm (inhibition and/or disruption); type: cell-based; details: in vitro testing
Description: as §1, §2, §3, §4

[6] = tested on: bacterial (S. aureus) biofilm; assay: Bacterial biofilm disruption assay; type: cell-based, Staphylococcus aureus
Description: as §1, §2, §3
Bacterial strains were streaked on Blood Agar plates (5% sheep blood in Tryptic Soy Broth) and incubated at 37° C. for 24 hours. A single colony from each strain to be tested was inoculated in a TSB broth and grown for 12 hours, at 37° C. with shaking (225 rpm). For the bacterial biofilm inhibition assays, 1 μL of saturated overnight cell culture was added to either 80 μL of TSB-G, or TSB-G supplemented with the amino acid compound solution to be tested, in a 384-well plate. The cells were allowed to adhere to the plate for 60 minutes at 37° C. without shaking. The media was carefully aspirated and 80 μL of TSB-G, or TSB-G supplemented with the amino acid compound solution was added to the plate. The plate was further incubated for 24 hours at 37° C. without shaking. Media was carefully aspirated and the biofilm was measured by optical density at 600 nm. Eight or twelve replicates were performed for each tested condition and the reported values are normalized to the control (TSB-G media only). For the bacterial biofilm disruption assays, 80 µL of TSB-G was added to the plate, along with 1 μL of overnight cell culture. The cells were allowed to adhere to the plate for 60 minutes at 37° C. with no shaking. The media was carefully aspirated and 80 μL of TSB-G was added to the plate. The plate was further incubated for 24 hours at 37° C. with no shaking. Media was carefully aspirated from the mature biofilm and 80 μL of TSB-G, or TSB-G supplemented with the amino acid to be tested, was gently added to the plate. The plate was further incubated for 24 hours at 37° C. without shaking. Media was aspirated and the biofilm was measured by optical density at 600 nm. Twelve replicates were performed for each tested condition and the reported values are normalized to the control (TSB-G media only).

[7] = tested on: fungal biofilm (C. albicans); assay: Fungal biofilm disruption assay; type: cell-based, Candida albicans
Description: as §1, §2, §3, §4

[8] = tested on: fungal biofilm (C. albicans); assay: Fungal biofilm inhibition assay; type: cell-based, Candida albicans
Description: as §1, §2, §3, §4

[9] = tested on: bacterial biofilm; assay: In vitro testing on bacterial biofilm (inhibition and/or disruption); type: cell-based; details: in vitro testing
[10] = Table F, in the presence of a sufficient concentration of glycerol
[11] = Table D, bacterial and fungal biofilm
[12] = Table E, in the absence of an infusion of glycerol

N[C@@H](CCC(=O)O)C(=O)O [Glutamic Acid, L-glutamic acid]
Reduce or Inhibit B Biofilm (squares: Inhibition Biofilm Assay) ([1]; Table D, 0.1 to 5.0%): ▪▪ (Two squares [ie. ▪▪] signifies a major effect (greater than about 50%), on the Inhibition Biofilm Assay) | Reduce or Inhibit B Biofilm (squares: Inhibition Biofilm Assay) [1, 10]: ▪▪ (Two squares [ie. ▪▪] signifies a major effect (greater than about 50%), on the Inhibition Biofilm Assay) | Reduce Both (dots: Disruption Biofilm Assay) [2, 11]: ●● (Two dots [ie. ●●] signifies a major effect (greater than about 50%), on the Disruption Biofilm Assay) | Reduce Both (dots: Disruption Biofilm Assay) [2, 10]: ●● (Two dots [ie. ●●] signifies a major effect (greater than about 50%), on the Disruption Biofilm Assay) | ideal concentration for antibiofilm effect [3]: 0.5 g % | effect on bacterial and fungal biofilm (in words) [3]: very active against both bacterial and fungal biofilm | effect on bacterial and fungal biofilm (in words) ([3]; listed as Glutamic acid): strong effect on biofilm-forming bacteria and fungi in reducing biofilm formation | concentration of maximum (ideal) antibiofilm effect [3]: 0.5% | Reduce Both (squares: Inhibition Biofilm Assay) [4, 11]: ▪▪ (Two squares [ie. ▪▪] signifies a major effect (greater than about 50%), on the Inhibition Biofilm Assay) | Reduce Both (squares: Inhibition Biofilm Assay) [4, 10]: ▪▪ (Two squares [ie. ▪▪] signifies a major effect (greater than about 50%), on the Inhibition Biofilm Assay) | effect on fungal biofilm (in words) [5]: antifungal biofilm effects | Reduce or Inhibit B Biofilm (dots: Disruption Biofilm Assay) ([6]; Table D, 0.1 to 5.0%): ●● (Two dots [ie. ●●] signifies a major effect (greater than about 50%), on the Disruption Biofilm Assay) | Reduce or Inhibit B Biofilm (dots: Disruption Biofilm Assay) [6, 10]: ●● (Two dots [ie. ●●] signifies a major effect (greater than about 50%), on the Disruption Biofilm Assay) | Reduce or Inhibit F Biofilm (dots: Disruption Biofilm Assay) ([7]; Table D, 0.1 to 5.0%): ●● (Two dots [ie. ●●] signifies a major effect (greater than about 50%), on the Disruption Biofilm Assay) | Reduce or Inhibit F Biofilm (dots: Disruption Biofilm Assay) [7, 10]: ●● (Two dots [ie. ●●] signifies a major effect (greater than about 50%), on the Disruption Biofilm Assay) | Reduce or Inhibit F Biofilm (squares: Inhibition Biofilm Assay) ([8]; Table D, 0.1 to 5.0%): ▪▪ (Two squares [ie. ▪▪] signifies a major effect (greater than about 50%), on the Inhibition Biofilm Assay) | Reduce or Inhibit F Biofilm (squares: Inhibition Biofilm Assay) [8, 10]: ▪▪ (Two squares [ie. ▪▪] signifies a major effect (greater than about 50%), on the Inhibition Biofilm Assay) | effect on bacterial biofilm (in words) [9]: antibacterial biofilm effect

N[C@@H](CC(=O)O)C(=O)O [Aspartic Acid, L-aspartic acid]
Reduce or Inhibit B Biofilm (squares: Inhibition Biofilm Assay) ([1]; Table D, 0.1 to 5.0%): ▪▪ (Two squares [ie. ▪▪] signifies a major effect (greater than about 50%), on the Inhibition Biofilm Assay) | Reduce or Inhibit B Biofilm (squares: Inhibition Biofilm Assay) [1, 10]: ▪▪ (Two squares [ie. ▪▪] signifies a major effect (greater than about 50%), on the Inhibition Biofilm Assay) | Reduce Both (dots: Disruption Biofilm Assay) [2, 11]: ●● (Two dots [ie. ●●] signifies a major effect (greater than about 50%), on the Disruption Biofilm Assay) | Reduce Both (dots: Disruption Biofilm Assay) [2, 10]: ●● (Two dots [ie. ●●] signifies a major effect (greater than about 50%), on the Disruption Biofilm Assay) | ideal concentration for antibiofilm effect [3]: 0.5 g % | effect on bacterial and fungal biofilm (in words) [3]: very active against both bacterial and fungal biofilm | effect on bacterial and fungal biofilm (in words) ([3]; listed as Aspartic acid): strong effect on biofilm-forming bacteria and fungi in reducing biofilm formation | concentration of maximum (ideal) antibiofilm effect [3]: 0.5% | Reduce Both (squares: Inhibition Biofilm Assay) [4, 11]: ▪▪ (Two squares [ie. ▪▪] signifies a major effect (greater than about 50%), on the Inhibition Biofilm Assay) | Reduce Both (squares: Inhibition Biofilm Assay) [4, 10]: ▪▪ (Two squares [ie. ▪▪] signifies a major effect (greater than about 50%), on the Inhibition Biofilm Assay) | effect on fungal biofilm (in words) [5]: antifungal biofilm effects | Reduce or Inhibit B Biofilm (dots: Disruption Biofilm Assay) ([6]; Table D, 0.1 to 5.0%): ●● (Two dots [ie. ●●] signifies a major effect (greater than about 50%), on the Disruption Biofilm Assay) | Reduce or Inhibit B Biofilm (dots: Disruption Biofilm Assay) [6, 10]: ●● (Two dots [ie. ●●] signifies a major effect (greater than about 50%), on the Disruption Biofilm Assay) | Reduce or Inhibit F Biofilm (dots: Disruption Biofilm Assay) ([7]; Table D, 0.1 to 5.0%): ●● (Two dots [ie. ●●] signifies a major effect (greater than about 50%), on the Disruption Biofilm Assay) | Reduce or Inhibit F Biofilm (dots: Disruption Biofilm Assay) [7, 10]: ●● (Two dots [ie. ●●] signifies a major effect (greater than about 50%), on the Disruption Biofilm Assay) | Reduce or Inhibit F Biofilm (squares: Inhibition Biofilm Assay) ([8]; Table D, 0.1 to 5.0%): ▪▪ (Two squares [ie. ▪▪] signifies a major effect (greater than about 50%), on the Inhibition Biofilm Assay) | Reduce or Inhibit F Biofilm (squares: Inhibition Biofilm Assay) [8, 10]: ▪▪ (Two squares [ie. ▪▪] signifies a major effect (greater than about 50%), on the Inhibition Biofilm Assay) | effect on bacterial biofilm (in words) [9]: antibacterial biofilm effect

Cn1cncc1C[C@H](N)C(=O)O [3-Methylhistidine, 3-methyl-L-histidine]
effect on fungal biofilm (in words) [5]: promoted fungal biofilm formation | Reduce or Inhibit B Biofilm (dots: Disruption Biofilm Assay) ([6]; Table D, 0.1 to 5.0%): ● (Single dot [ie. ●] signifies little effect on the Disruption Biofilm Assay (from about 10 to less than 30%)) | Reduce or Inhibit B Biofilm (dots: Disruption Biofilm Assay) [6, 10]: ● (Single dot [ie. ●] signifies little effect on the Disruption Biofilm Assay (from about 10 to less than 30%)) | Promote F Biofilm (dots: Disruption Biofilm Assay) ([7]; Table D, 0.1 to 5.0%): ● (Single dot [ie. ●] signifies little effect on the Disruption Biofilm Assay (from about 10 to less than 30%)) | Promote F Biofilm (dots: Disruption Biofilm Assay) [7, 12]: ● (Single dot [ie. ●] signifies little effect on the Disruption Biofilm Assay (from about 10 to less than 30%)) | Promote F Biofilm (squares: Inhibition Biofilm Assay) ([8]; Table D, 0.1 to 5.0%): ▪ (Single square [ie. ▪] signifies little effect on the Inhibition Biofilm Assay (from about 10 to less than 30%)) | Promote F Biofilm (squares: Inhibition Biofilm Assay) [8, 12]: ▪ (Single square [ie. ▪] signifies little effect on the Inhibition Biofilm Assay (from about 10 to less than 30%)) | effect on bacterial biofilm (in words) [9]: antibacterial biofilm effect
